In ChEMBL document CHEMBL1177716, “Kinesin spindle protein (KSP) inhibitors with 2,3-fused indole scaffolds” (J Med Chem, 2010):
Activity calls are given as the source filed them. The rule behind the calls is not given here.

Key:
Nucleic Acid = assay: Induction of supercoiled DNA relaxation after 20 mins by agarose gel electrophoresis analysis; format: nucleic-acid assay
HeLa = assay: Cytotoxicity against human HeLa cells after 48 hrs […]; format: functional, cell-based; details: Homo sapiens, HeLa, 48 h
[1] = target: T1, Kinesin-like protein KIF22 (Homo sapiens) (UniProt Q14807); assay: Inhibition of Kid ATPase activity at 20 uM
T1 sequence (whole entry): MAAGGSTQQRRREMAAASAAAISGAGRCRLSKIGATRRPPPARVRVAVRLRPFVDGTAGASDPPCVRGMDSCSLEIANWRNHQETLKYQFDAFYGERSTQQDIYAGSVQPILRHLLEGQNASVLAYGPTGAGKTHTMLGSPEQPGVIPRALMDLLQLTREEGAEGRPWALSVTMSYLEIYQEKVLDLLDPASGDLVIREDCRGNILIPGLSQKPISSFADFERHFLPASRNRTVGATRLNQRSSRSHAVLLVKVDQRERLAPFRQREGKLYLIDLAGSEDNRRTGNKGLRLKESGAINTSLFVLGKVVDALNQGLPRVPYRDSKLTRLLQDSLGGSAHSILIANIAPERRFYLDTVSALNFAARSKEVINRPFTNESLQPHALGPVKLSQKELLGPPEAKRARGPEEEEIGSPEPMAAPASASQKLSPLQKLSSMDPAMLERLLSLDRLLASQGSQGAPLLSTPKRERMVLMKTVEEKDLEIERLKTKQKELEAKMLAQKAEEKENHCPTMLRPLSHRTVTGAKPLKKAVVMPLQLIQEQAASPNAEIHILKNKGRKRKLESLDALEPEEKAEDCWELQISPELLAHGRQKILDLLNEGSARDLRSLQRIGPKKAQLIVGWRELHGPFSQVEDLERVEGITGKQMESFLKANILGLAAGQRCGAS

[2] = target: T2, Chromosome-associated kinesin KIF4A (Homo sapiens) (UniProt O95239); assay: Inhibition of KIF-4 ATPase activity at 20 uM
T2 sequence (whole entry): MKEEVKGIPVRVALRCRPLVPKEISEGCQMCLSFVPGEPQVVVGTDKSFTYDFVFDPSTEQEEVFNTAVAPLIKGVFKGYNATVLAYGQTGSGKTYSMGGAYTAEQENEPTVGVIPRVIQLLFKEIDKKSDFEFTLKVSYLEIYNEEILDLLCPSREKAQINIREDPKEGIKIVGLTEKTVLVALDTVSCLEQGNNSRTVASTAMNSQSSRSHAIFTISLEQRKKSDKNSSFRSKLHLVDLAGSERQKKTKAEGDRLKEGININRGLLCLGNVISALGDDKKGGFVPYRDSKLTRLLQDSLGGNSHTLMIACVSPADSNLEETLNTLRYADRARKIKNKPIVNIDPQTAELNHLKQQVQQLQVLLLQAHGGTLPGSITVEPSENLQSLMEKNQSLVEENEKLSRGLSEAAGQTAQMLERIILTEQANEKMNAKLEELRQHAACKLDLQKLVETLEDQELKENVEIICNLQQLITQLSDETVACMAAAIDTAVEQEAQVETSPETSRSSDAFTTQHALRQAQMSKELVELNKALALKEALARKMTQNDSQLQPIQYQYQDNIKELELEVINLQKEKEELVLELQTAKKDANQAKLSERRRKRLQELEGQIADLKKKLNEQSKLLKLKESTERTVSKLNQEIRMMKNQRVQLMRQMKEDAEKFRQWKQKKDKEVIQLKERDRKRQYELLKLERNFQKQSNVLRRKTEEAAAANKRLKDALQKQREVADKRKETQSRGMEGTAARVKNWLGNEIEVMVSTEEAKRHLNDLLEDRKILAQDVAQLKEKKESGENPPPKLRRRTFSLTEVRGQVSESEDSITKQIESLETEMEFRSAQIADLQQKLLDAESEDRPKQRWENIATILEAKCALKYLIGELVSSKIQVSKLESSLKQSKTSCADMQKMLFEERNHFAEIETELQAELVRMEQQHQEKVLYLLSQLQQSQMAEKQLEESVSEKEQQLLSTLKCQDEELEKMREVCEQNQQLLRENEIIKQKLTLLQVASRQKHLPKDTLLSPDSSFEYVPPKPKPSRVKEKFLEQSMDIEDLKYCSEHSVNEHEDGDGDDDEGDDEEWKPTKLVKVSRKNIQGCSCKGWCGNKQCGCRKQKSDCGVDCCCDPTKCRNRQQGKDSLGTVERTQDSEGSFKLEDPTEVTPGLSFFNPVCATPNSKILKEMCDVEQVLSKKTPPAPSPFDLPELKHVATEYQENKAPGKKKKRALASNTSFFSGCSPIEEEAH

[3] = target: T3, Kinesin-like protein KIF11 (Homo sapiens, UniProt P52732); assay: Inhibition of human C-terminally His6-tagged microtubule-activated KSP motor domain ATPase activity after 30 mins by luciferase-derived luminescence assay
T3 sequence (P52732 whole entry): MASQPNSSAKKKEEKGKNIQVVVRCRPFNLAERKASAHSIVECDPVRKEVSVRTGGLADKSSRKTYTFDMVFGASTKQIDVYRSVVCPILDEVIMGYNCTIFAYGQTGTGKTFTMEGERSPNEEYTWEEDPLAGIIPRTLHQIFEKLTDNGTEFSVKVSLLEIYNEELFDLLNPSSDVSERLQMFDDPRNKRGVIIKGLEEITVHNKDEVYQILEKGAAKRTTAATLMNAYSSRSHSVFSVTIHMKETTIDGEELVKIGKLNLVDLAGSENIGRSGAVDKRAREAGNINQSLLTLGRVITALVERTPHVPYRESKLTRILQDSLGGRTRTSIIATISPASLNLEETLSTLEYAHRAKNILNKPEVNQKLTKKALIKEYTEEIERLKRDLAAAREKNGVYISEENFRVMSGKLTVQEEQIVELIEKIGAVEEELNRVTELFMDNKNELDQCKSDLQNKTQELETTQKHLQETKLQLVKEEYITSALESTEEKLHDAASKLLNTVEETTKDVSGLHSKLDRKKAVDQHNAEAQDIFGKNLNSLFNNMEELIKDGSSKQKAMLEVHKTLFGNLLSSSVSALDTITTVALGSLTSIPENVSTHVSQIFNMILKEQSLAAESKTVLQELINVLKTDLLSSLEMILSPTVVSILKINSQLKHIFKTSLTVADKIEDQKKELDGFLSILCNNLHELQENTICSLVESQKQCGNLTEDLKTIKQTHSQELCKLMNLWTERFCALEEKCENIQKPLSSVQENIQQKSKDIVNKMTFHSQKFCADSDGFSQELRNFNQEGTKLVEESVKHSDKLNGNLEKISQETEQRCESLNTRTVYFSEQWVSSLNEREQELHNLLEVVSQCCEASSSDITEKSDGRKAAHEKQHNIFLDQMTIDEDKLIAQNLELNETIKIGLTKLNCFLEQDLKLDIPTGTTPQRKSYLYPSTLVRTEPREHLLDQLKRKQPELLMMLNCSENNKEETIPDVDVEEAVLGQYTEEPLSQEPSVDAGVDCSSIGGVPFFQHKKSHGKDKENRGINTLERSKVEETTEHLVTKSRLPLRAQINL

FC(F)(F)c1ccc2c(c1)[nH]c1ccccc12
Activity (Nucleic Acid): inactive
IC50 (HeLa): 11 µM
inhibition [1]: inactive
inhibition [2]: inactive
IC50 [3]: 0.26 µM

FC(F)(F)c1ccc2[nH]c3ccccc3c2c1
Activity (Nucleic Acid): inactive
IC50 (HeLa): 14 µM
inhibition [1]: inactive
inhibition [2]: inactive
IC50 [3]: 0.95 µM

CC(C)(C)c1ccc2c(c1)[nH]c1ccccc12
Activity (Nucleic Acid): inactive
IC50 (HeLa): 40 µM
inhibition [1]: inactive
inhibition [2]: inactive
IC50 [3]: 0.3 µM
